Data as given in the supplement of paper PMC4862054.

What was measured:
Conditions in all cases: incubation time: 72 h
[1] = test system: MCF-10A; test: normalised response (% of control), CellTiter-Glo; higher = more viable cells (100 = DMSO, 0 = benzethonium chloride kill control)
Outline: (§1)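 CellTox Green fluorescence (485/520 nm) and, after 10 min at room temperature, CellTiter-Glo luminescence were read from breast cancer cell lines incubated 72 h in 384-well plates. Cells were seeded as 20 µl suspension onto compound at 5 concentrations in 10-fold steps over a 10,000-fold range chosen per compound. Each plate was normalised to 0.1 % DMSO (100) and a positive kill control (0). Values are normalised signals, one per concentration.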

[2] = test system: CAL-148; test: as above
Outline: as §1

[3] = test system: MCF-10A; test: drug sensitivity score (DSS), CellTox Green (DSS (AUC-based score)); higher = stronger drug effect (viability inhibition or cytotoxicity); extreme values may be limits of the assay
Outline: (§2)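 For 72 h, breast cancer cell lines seeded at 20 µl suspension per well in 384-well plates were incubated with compound at 5 concentrations in 10-fold steps spanning a 10,000-fold range that differed by compound. The first reading was CellTox Green fluorescence at 485/520 nm, and the second was CellTiter-Glo luminescence after 10 min at room temperature. Both were normalised per plate to 0.1 % DMSO and a positive kill control, and the drug sensitivity score was obtained from the area under the fitted dose-response curve.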

[4] = test system: CAL-120; test: as above
Outline: as §2

[5] = test system: BT-474; test: as above
Outline: as §2

[6] = test system: MDA-MB-436; test: as above
Outline: as §2

[7] = test system: BT-549; test: as above
Outline: as §2

[8] = test system: DU-4475; test: as above
Outline: as §2

[9] = test system: CAL-148; test: as above
Outline: as §2

[10] = test system: HCC1599; test: as above
Outline: as §2

[11] = test system: CAL-85-1; test: as above
Outline: as §2

[12] = test system: CAL-51; test: as above
Outline: as §2

[13] = test system: MDA-MB-468; test: as above
Outline: as §2

[14] = test system: MFM-223; test: as above
Outline: as §2

[15] = test system: HCC1143; test: as above
Outline: as §2

[16] = test system: HDQ-P1; test: as above
Outline: as §2

[17] = test system: MDA-MB-453; test: as above
Outline: as §2

[18] = test system: MCF-10A; test: drug sensitivity score (DSS), CellTiter-Glo (DSS (AUC-based score)); higher = stronger drug effect (viability inhibition or cytotoxicity); extreme values may be limits of the assay
Outline: as §2

[19] = test system: MDA-MB-231; test: as above
Outline: as §2

[20] = test system: CAL-120; test: as above
Outline: as §2

[21] = test system: BT-474; test: as above
Outline: as §2

[22] = test system: HCC1937; test: as above
Outline: as §2

[23] = test system: CAL-148; test: as above
Outline: as §2

[24] = test system: MDA-MB-468; test: as above
Outline: as §2

[25] = test system: MFM-223; test: as above
Outline: as §2

[26] = test system: MDA-MB-453; test: as above
Outline: as §2

## CN1CC[C@H](c2c(O)cc(O)c3c(=O)cc(-c4ccccc4Cl)oc23)[C@H](O)C1 [Alvocidib] (1000 nM)
[1]
  normalised response: 11.2%
[2]
  normalised response: 26.1%

## Nc1nc(Cl)nc2c1ncn2[C@H]1C[C@H](O)[C@@H](CO)O1 [Cladribine]
[3]
  drug sensitivity score: 0
[4]
  drug sensitivity score: 0
[5]
  drug sensitivity score: 0
[6]
  drug sensitivity score: 0
[7]
  drug sensitivity score: 0
[8]
  drug sensitivity score: 0
[9]
  drug sensitivity score: 0
[10]
  drug sensitivity score: 0
[11]
  drug sensitivity score: 0
[12]
  drug sensitivity score: 0
[13]
  drug sensitivity score: 14.3
[14]
  drug sensitivity score: 3.32
[15]
  drug sensitivity score: 1.86
[16]
  drug sensitivity score: 0
[17]
  drug sensitivity score: 0
[18]
  drug sensitivity score: 0
[19]
  drug sensitivity score: 0
[20]
  drug sensitivity score: 1.39
[21]
  drug sensitivity score: 0
[22]
  drug sensitivity score: 0
[23]
  drug sensitivity score: 0
[24]
  drug sensitivity score: 0.301
[25]
  drug sensitivity score: 0
[26]
  drug sensitivity score: 0

## Nc1nc(Cl)nc2c1ncn2[C@H]1C[C@H](O)[C@@H](CO)O1 [Cladribine] (100 nM)
[1]
  normalised response: 107%
[2]
  normalised response: 97.8%

## Nc1ccn([C@@H]2O[C@H](CO)[C@@H](O)[C@@H]2O)c(=O)n1 [Cytarabine]
[3]
  drug sensitivity score: 0.944
[4]
  drug sensitivity score: 0
[5]
  drug sensitivity score: 0
[6]
  drug sensitivity score: 0
[7]
  drug sensitivity score: 0
[8]
  drug sensitivity score: 0
[9]
  drug sensitivity score: 7.92
[10]
  drug sensitivity score: 0
[11]
  drug sensitivity score: 0
[12]
  drug sensitivity score: 13.1
[13]
  drug sensitivity score: 0
[14]
  drug sensitivity score: 0
[15]
  drug sensitivity score: 0
[16]
  drug sensitivity score: 0
[17]
  drug sensitivity score: 0
[18]
  drug sensitivity score: 0
[19]
  drug sensitivity score: 0
[20]
  drug sensitivity score: 0.601
[21]
  drug sensitivity score: 0.361
[22]
  drug sensitivity score: 0
[23]
  drug sensitivity score: 11.3
[24]
  drug sensitivity score: 4.8
[25]
  drug sensitivity score: 0
[26]
  drug sensitivity score: 0

## Nc1ccn([C@@H]2O[C@H](CO)[C@@H](O)[C@@H]2O)c(=O)n1 [Cytarabine] (1000 nM)
[1]
  normalised response: 104%
[2]
  normalised response: 55.5%

## Cc1c2oc3c(C)ccc(C(=O)N[C@@H]4C(=O)N[C@H](C(C)C)C(=O)N5CCC[C@H]5C(=O)N(C)CC(=O)N(C)[C@@H](C(C)C)C(=O)O[C@@H]4C)c3nc-2c(C(=O)N[C@@H]2C(=O)N[C@H](C(C)C)C(=O)N3CCC[C@H]3C(=O)N(C)CC(=O)N(C)[C@@H](C(C)C)C(=O)O[C@@H]2C)c(N)c1=O [Dactinomycin] (100 nM)
[1]
  normalised response: 5.33%
[2]
  normalised response: 2.05%

## COc1cccc2c1C(=O)c1c(O)c3c(c(O)c1C2=O)C[C@@](O)(C(=O)CO)C[C@@H]3O[C@H]1C[C@H](N)[C@H](O)[C@H](C)O1 [Doxorubicin] (100 nM)
[1]
  normalised response: 106%
[2]
  normalised response: 82.7%

## Cc1ccc(F)c(NC(=O)Nc2ccc(-c3cccc4[nH]nc(N)c34)cc2)c1 [Linifanib] (100 nM)
[1]
  normalised response: 105%
[2]
  normalised response: 109%

## S=c1[nH]cnc2nc[nH]c12 [Mercaptopurine] (1000 nM)
[1]
  normalised response: 94.2%
[2]
  normalised response: 85%

## Clc1ccc(C(c2ccccc2Cl)C(Cl)Cl)cc1 (stereo not given) [Mitotane] (1000 nM)
[1]
  normalised response: 91.7%
[2]
  normalised response: 95.7%

## COc1cccc2cc(-c3nc([C@H]4CC[C@H](C(=O)O)CC4)n4ncnc(N)c34)[nH]c12 [OSI-027] (1000 nM)
[1]
  normalised response: 87%
[2]
  normalised response: 93.1%

## OC[C@H]1O[C@@H](n2cnc3c2N=CNC[C@H]3O)C[C@@H]1O [Pentostatin] (1000 nM)
[1]
  normalised response: 105%
[2]
  normalised response: 94.4%

## N#CC[C@H](C1CCCC1)n1cc(-c2ncnc3[nH]ccc23)cn1 [Ruxolitinib] (1000 nM)
[1]
  normalised response: 80.6%
[2]
  normalised response: 99.9%

## C=CC[C@@H]1/C=C(\C)C[C@H](C)C[C@H](OC)[C@H]2O[C@@](O)(C(=O)C(=O)N3CCCC[C@H]3C(=O)O[C@H](/C(C)=C/[C@@H]3CC[C@@H](O)[C@H](OC)C3)[C@H](C)[C@@H](O)CC1=O)[C@H](C)C[C@@H]2OC [Tacrolimus] (1000 nM)
[1]
  normalised response: 102%
[2]
  normalised response: 96.6%

## C=CCNC1=C2C[C@@H](C)C[C@H](OC)[C@H](O)[C@@H](C)/C=C(\C)[C@H](OC(N)=O)[C@@H](OC)/C=C\C=C(/C)C(=O)NC(=CC1=O)C2=O [Tanespimycin] (1000 nM)
[1]
  normalised response: 14.6%
[2]
  normalised response: 24.1%

## C[C@]1(c2nc3c(C(N)=O)cccc3[nH]2)CCCN1 [Veliparib] (1000 nM)
[1]
  normalised response: 91.3%
[2]
  normalised response: 96.2%

## CC[C@]1(O)C[C@@H]2CN(CCc3c([nH]c4ccccc34)[C@@](C(=O)OC)(c3cc4c(cc3OC)N(C)[C@H]3[C@@](O)(C(=O)OC)[C@H](OC(C)=O)[C@]5(CC)C=CCN6CC[C@]43[C@@H]65)C2)C1 [Vinblastine] (100 nM)
[1]
  normalised response: 72.4%
[2]
  normalised response: 42%

## CS(=O)(=O)c1ccc(C(=O)Nc2ccc(Cl)c(-c3ccccn3)c2)c(Cl)c1 [Vismodegib] (1000 nM)
[1]
  normalised response: 94.9%
[2]
  normalised response: 98.8%
